Reference: US9006278B2, “Controlled release systems of pluribioactive antifungal drugs and applications thereof” (Poly-Med, Inc., priority 2010, dated 2015)

How the values were obtained:
Assay type in all cases: cell-based
[1] = test system: Candida albicans; test: Broth culture growth inhibition, absorbance at 600 nm (Candida albicans); conditions: overnight (approx. 16 hours), read-out: % Inhibition C. albicans
Experimental: (§1) Bacterial and fungal cultures (Staphylococcus aureus and Candida albicans) were maintained according to manufacturer (ATCC) instructions. Broth was inoculated according to 0.5 McFarland standard (0.05 absorbance reading). Miconazole or ketoconazole was dissolved in ethanol to create a stock solution. Cultures were incubated overnight (approximately 16 hours), at which time relative absorbance was recorded for each sample using a spectrophotometer (600 nm wavelength). Absorbance values were then used to calculate percent inhibition.

[2] = test system: Staphylococcus aureus; test: Broth culture growth inhibition, absorbance at 600 nm (Staphylococcus aureus); conditions: overnight (approx. 16 hours), read-out: % Inhibition S. aureus
Experimental: as §1

[3] = test system: SKOV3 ovarian cancer cells; test: Cell viability, CellTiter 96 AQueous One (SKOV3); conditions: Homo sapiens, SK-OV-3, 48 h, 2 days
Experimental: (§2) To examine the effect of miconazole and ketoconazole on cancer cells (SKOV3, OVCAR3, and MCF7) and vascular cells (human aortic smooth muscle and umbilical vein endothelium), each cell type was seeded in separate 24-well plates at a density of approximately 50,000 to 100,000 cells/cm^2. After incubation under standard cell culture conditions (that is, a 37° C., humidified, 5% CO2 environment) for approximately 24 hours, media was aspirated from each well, and replaced with the appropriate treatments. Miconazole or ketoconazole was dissolved in ethanol to create a stock solution. […] The same volume of ethanol was added to control wells, but no drug was present. Cells were further incubated for 2 days. At that time, cell viability was measured using a commercially available kit, according to manufacturer instructions (CellTiter 96® AQueous One Solution Cell Proliferation Assay, Promega). All samples were prepared in triplicate. Percent inhibition was then calculated using the absorbance values.

[4] = test system: OVCAR3 ovarian cancer cells; test: Cell viability, CellTiter 96 AQueous One (OVCAR3); conditions: Homo sapiens, OVCAR-3, 48 h, 2 days
Experimental: as §2

[5] = test system: MCF7 breast cancer cells; test: Cell viability, CellTiter 96 AQueous One (MCF7); conditions: Homo sapiens, MCF7, 48 h, 2 days
Experimental: as §2

[6] = test system: human aortic smooth muscle cells; test: Cell viability, CellTiter 96 AQueous One (smooth muscle); conditions: 48 h, 2 days
Experimental: as §2

[7] = test system: umbilical vein endothelium cells; test: Cell viability, CellTiter 96 AQueous One (endothelium); conditions: Homo sapiens, 48 h, 2 days, read-out: % Inhibition Endothelial
Experimental: as §2

With `Clc1ccc(COC(Cn2ccnc2)c2ccc(Cl)cc2Cl)c(Cl)c1` (stereo not shown) [Miconazole, miconazole] the inhibition at 20 µg/mL ([1]; 20 μg/mL) was 98.3%, the inhibition at 60 µg/mL ([1]; 60 μg/mL) was 73.2% and the inhibition at 20 µg/mL ([2]; 20 μg/mL) was 76.7%. For the same compound, the inhibition at 60 µg/mL ([2]; 60 μg/mL) was 65%, the inhibition at 20 µg/mL ([3]; 20 μg/mL) was 13% and the inhibition at 60 µg/mL ([3]; 60 μg/mL) was 61%. It also gave an inhibition at 20 µg/mL ([4]; 20 μg/mL) of 19%, an inhibition at 60 µg/mL ([4]; 60 μg/mL) of 57% and an inhibition at 20 µg/mL ([5]; 20 μg/mL) of 19%. For the same compound, the inhibition at 60 µg/mL ([5]; 60 μg/mL) was 55%, the inhibition at 20 µg/mL ([6]; 20 μg/mL) was 58% and the inhibition at 60 µg/mL ([6]; 60 μg/mL) was 84%. For the same compound, the inhibition at 20 µg/mL ([7]; 20 μg/mL) was 18% and the inhibition at 60 µg/mL ([7]; 60 μg/mL) was 58%.
`CC(=O)N1CCN(c2ccc(OCC3COC(Cn4ccnc4)(c4ccc(Cl)cc4Cl)O3)cc2)CC1` (stereo not shown) [Ketoconazole, ketoconazole] showed an inhibition at 40 µg/mL ([1]; 40 μg/mL) of 93.8%, an inhibition at 80 µg/mL ([1]; 80 μg/mL) of 98.6% and an inhibition at 40 µg/mL ([2]; 40 μg/mL) of 32.7%. For the same compound, the inhibition at 80 µg/mL ([2]; 80 μg/mL) was 67.6%, the inhibition at 40 µg/mL ([3]; 40 μg/mL) was 0% and the inhibition at 80 µg/mL ([3]; 80 μg/mL) was 51%. For the same compound, the inhibition at 40 µg/mL ([4]; 40 μg/mL) was 0%, the inhibition at 80 µg/mL ([4]; 80 μg/mL) was 57% and the inhibition at 40 µg/mL ([5]; 40 μg/mL) was 58%. For the same compound, the inhibition at 80 µg/mL ([5]; 80 μg/mL) was 50%, the inhibition at 40 µg/mL ([6]; 40 μg/mL) was 31% and the inhibition at 80 µg/mL ([6]; 80 μg/mL) was 68%. It also gave an inhibition at 40 µg/mL ([7]; 40 μg/mL) of 16% and an inhibition at 80 µg/mL ([7]; 80 μg/mL) of 38%.
